Tests used:
CDK4/cyclin D3 = CDK4/cyclin D3 (Homo sapiens, UniProt P11802); test: Inhibition of CDK4/Cyclin D Retinoblastoma Kinase Activity; type: biochemical; details: apparent Ki
Summary of the method: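 Human CDK4/cyclin D3 (full-length or cyclin D3 1–264), insect-cell expressed, at 5 or 50 nM with His-tagged Rb 386–928 substrate, 25 μM ATP plus [32P/33P]ATP, pH 7.4, 2% DMSO, 30 °C for 20 min; tight binders used 5 nM enzyme for 60 min. Filter-captured phospho-Rb quantified by phosphorimager. Apparent Ki from competitive or tight-binding inhibition fits.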

CDK2/cyclin A = target: T1, CDK2/cyclin A (Homo sapiens, UniProt P24941); test: Inhibition of CDK2/Cyclin A Retinoblastoma Kinase Activity; type: biochemical; details: apparent Ki
T1 construct: made in house; host or cells: CDK2: insect cells (baculovirus); cyclin A: E. coli
Summary of the method: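 Baculovirus-expressed CDK2 complexed with proteolyzed cyclin A, at 150 nM or 5 nM, phosphorylating an Rb fragment with 25 µM [32/33P]ATP in HEPES pH 7.4, 2% DMSO. Reactions run 20 min at 30°C, EDTA-stopped, filter-captured; apparent Ki from competitive or tight-binding competitive fits.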

human CHK1 = target: T2, human CHK1 (Homo sapiens, UniProt O14757); test: CHK1 Assay (coupled spectrophotometric); type: biochemical
T2 construct: C-terminally His-tagged full-length human CHK1 (FL-CHK1) was expressed using the baculovirus/insect cell system; made in house; host or cells: baculovirus/insect cells
T2 sequence (O14757 1-476): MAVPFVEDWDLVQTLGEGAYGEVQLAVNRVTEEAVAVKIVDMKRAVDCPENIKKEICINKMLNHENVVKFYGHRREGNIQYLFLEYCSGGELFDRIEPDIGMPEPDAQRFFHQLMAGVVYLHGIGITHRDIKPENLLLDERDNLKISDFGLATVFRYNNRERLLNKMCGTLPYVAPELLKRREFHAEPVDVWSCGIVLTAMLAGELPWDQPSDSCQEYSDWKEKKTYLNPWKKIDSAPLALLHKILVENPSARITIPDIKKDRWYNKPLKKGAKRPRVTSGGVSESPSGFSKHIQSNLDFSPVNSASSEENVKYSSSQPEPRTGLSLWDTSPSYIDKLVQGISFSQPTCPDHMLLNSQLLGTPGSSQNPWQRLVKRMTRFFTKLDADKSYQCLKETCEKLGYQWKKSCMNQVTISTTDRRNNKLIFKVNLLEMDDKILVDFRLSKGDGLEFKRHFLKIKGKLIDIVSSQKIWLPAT
Excerpt: C-terminally His-tagged full-length human CHK1 (FL-CHK1) was expressed using the baculovirus/insect cell system. It contains 6 histidine residues (6×His-tag) at the C-terminus of the 476 amino acid human CHK1. The protein was purified by conventional chromatographic techniques.
The production of ADP from ATP that accompanies phosphoryl transfer to the synthetic substrate peptide Syntide-2 ([…]) was coupled to oxidation of NADH using phosphoenolpyruvate (PEP) through the actions of pyruvate kinase (PK) and lactic dehydrogenase (LDH). The oxidation of NADH was monitored by following the decrease of absorbance at 340 nm (ε340=6.22 cm^−1 mM^−1) using a HP8452 spectrophotometer. Typical reaction solutions contained: […]; 0.15 mM NADH; 28 units of LDH/ml; 16 units of PK/ml; 3 mM DTT; 0.125 mM Syntide-2; 0.15 mM ATP; 25 mM MgCl2 in 50 mM TRIS, pH 7.5; and 400 mM NaCl. Assays were initiated with 10 nM of FL-CHK1. Ki values were determined by measuring initial enzyme activity in the presence of varying concentrations of test compounds. The data were analyzed using Enzyme Kinetic and Kaleidagraph software.

FGFR1 tyrosine kinase = target: T3, FGFR1 tyrosine kinase (Homo sapiens, UniProt P11362, C488A/C584S/L457V); test: Inhibition of phosphorylated FGF receptor tyrosine kinase activity; type: biochemical; details: read-out: FGF % Inhib. at 1 μM
T3 construct: the cytosolic domain of FGFR1 tyrosine kinase (amino acids 456–766); made in house; host or cells: Sf9 insect cells (baculovirus)
T3 sequence (P11362 456-766 L457V/C488A/C584S): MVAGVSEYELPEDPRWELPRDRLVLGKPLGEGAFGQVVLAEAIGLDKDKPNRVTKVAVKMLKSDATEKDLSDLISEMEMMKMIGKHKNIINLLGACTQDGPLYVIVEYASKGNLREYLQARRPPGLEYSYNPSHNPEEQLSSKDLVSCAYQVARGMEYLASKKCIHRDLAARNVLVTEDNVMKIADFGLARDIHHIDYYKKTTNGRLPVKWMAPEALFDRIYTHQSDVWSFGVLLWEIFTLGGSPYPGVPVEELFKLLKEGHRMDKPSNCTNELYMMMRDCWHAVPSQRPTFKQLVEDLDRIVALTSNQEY
Experimental: (§1) Inhibition of Phosphorylated FGF Receptor and LCK Tyrosine Kinase Activity
(§2) Cloning, expression and purification of the cytosolic domain of FGFR1 tyrosine kinase (amino acids 456–766) containing three amino acid substitutions (L457V, C488A, and C584S) were conducted as previously described (Mohammadi, M., Schlessinger, J., & Hubbard, S. R. (1996) Cell 86, 577–587). This domain was expressed in Sf9 insect cells using a baculovirus expression vector, and protein was purified using conventional techniques. The LCK tyrosine kinase was expressed in insect cells as an N-terminal deletion starting from amino acid 223 to the end of the protein at amino acid 509. The N-terminus of the protein also had two amino acid substitutions, P223M and C 224D. Kinases were purified using conventional chromatographic methods.
(§3) Tyrosine kinase activity was measured using a coupled, continuous spectrophotometric assay, in which production of phosphorylated poly(Glu, Tyr; 4:1) substrate and ADP is coupled to the pyruvate kinase-catalyzed transfer of a phosphate from phosphoenolpyruvate to ADP, with generation of pyruvate and regeneration of ATP. Pyruvate production is in turn coupled to the lactate dehydrogenase-catalyzed reduction of pyruvate to form lactate, with concomitant conversion of NADH to NAD+. Loss of NADH is monitored by measuring absorbance at 340 nm (see e.g., Technikova-Dobrova et al., “Spectrophotometric determination of functional characteristics of protein kinases with coupled enzymatic assay,” FEBS Letters, vol. 292 (1991), pp. 69–72). Enzyme activity was measured in the presence of 200 mM HEPES (pH 7.5), 2 mM phosphoenolpyruvate, 0.3 mM NADH, 20 mM MgCl2, 100 μM ATP, 5 mM DTT, 5.1 or 25 mM poly (Glu,Tyr) 4:1 for P-FGF or P-LCK assays, respectively, and 15 units/mL each of pyruvate kinase and lactate dehydrogenase. Phosphorylated FGF receptor kinase was present at 100 nM and phosphorylated LCK kinase was present at 50 nM. Assays were performed under initial rate conditions at 37° C., and rates were corrected for any background rate measured in the absence of enzyme. Percent inhibition was calculated relative to control enzyme assayed in the presence of 2% (v/v) DMSO.

FAK = test: Coupled Spectrophotometric (FAK) Assay; type: biochemical
Experimental: Coupled Spectrophotometric (FAK) Assay
Tyrosine kinase assays were monitored using a Beckman DU 650 Spectrophotometer. Production of ADP was coupled to oxidation of NADH using phosphoenolpyruvate (PEP) through the actions of pyruvate kinase (PK) and lactic dehydrogenase (LDH). The oxidation of NADH was monitored by following the decrease in absorbance at 340 nm (ε340=6.22 cm^−1 mM^−1). Typical reaction solutions contained: 1 mM PEP, 250 μM NADH, 50 units of LDH/mL, 20 units of PK/mL, 5 mM DTT, in 200 mM Hepes, pH 7.5 and varying concentrations of poly(E4Y1), ATP and MgCl2. Assays were initiated with 40 nM of […].

HCT 116 cell line = test: Inhibition of Cell Growth (MTT tetrazolium salt assay); type: cell-based; details: Homo sapiens, HCT 116, MTT; for IC50: 50% inhibition of growth, read-out: HCT 116 IC50; for IC90: read-out: HCT 116 IC90
Summary of the method: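 HCT 116 cells in McCoy's 5A were dosed 4 h after plating, in 0.5% (v/v) DMSO, then held 4–6 days at 37 °C, 5% CO2. MTT at 0.2 mg/mL final for 4 h; DMSO-solubilized formazan read at 540 nm. IC50 taken from the linear part of a semi-log plot versus DMSO-only controls.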

LCK tyrosine kinase = target: T4, LCK tyrosine kinase (Homo sapiens, UniProt P06239, C224D/P223M); test: Inhibition of phosphorylated LCK tyrosine kinase activity; type: biochemical; details: read-out: LCK % Inhib. at 1 μM
T4 construct: starting from amino acid 223 to the end of the protein at amino acid 509; made in house; host or cells: insect cells
T4 sequence (P06239 223-509 P223M/C224D): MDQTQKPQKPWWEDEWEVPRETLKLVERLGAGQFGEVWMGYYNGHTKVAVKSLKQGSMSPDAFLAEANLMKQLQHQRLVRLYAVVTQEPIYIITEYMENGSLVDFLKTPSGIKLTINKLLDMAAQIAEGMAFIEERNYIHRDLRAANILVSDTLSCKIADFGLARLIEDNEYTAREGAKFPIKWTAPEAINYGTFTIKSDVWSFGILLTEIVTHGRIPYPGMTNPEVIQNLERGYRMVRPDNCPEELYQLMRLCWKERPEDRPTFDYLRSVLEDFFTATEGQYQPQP
Experimental: as §1, §2, §3

CDK4/cyclin D3, sequence (P11802 2-303 limits assumed): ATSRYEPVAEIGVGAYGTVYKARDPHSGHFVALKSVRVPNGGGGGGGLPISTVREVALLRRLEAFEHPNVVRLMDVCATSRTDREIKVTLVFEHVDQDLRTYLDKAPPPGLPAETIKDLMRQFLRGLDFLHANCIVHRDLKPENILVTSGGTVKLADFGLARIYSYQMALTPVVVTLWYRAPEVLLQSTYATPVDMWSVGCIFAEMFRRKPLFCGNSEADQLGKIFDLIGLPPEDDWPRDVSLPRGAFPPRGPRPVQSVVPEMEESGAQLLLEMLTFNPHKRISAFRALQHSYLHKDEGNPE
CDK4/cyclin D3, sequence (P30281 1-264 limits assumed, further chain): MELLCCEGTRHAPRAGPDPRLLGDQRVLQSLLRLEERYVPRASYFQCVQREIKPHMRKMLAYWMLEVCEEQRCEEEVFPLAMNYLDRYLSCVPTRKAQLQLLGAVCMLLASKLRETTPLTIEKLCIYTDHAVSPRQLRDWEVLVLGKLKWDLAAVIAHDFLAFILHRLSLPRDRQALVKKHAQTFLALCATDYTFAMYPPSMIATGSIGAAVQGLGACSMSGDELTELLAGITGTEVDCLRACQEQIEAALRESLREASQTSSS

| Ki (CDK4/cyclin D3) [nM] | Ki (CDK2/cyclin A) [nM] | inhibition at 20 µM (human CHK1) [%] | melting point [°C] | inhibition at 1 µM (FGFR1 tyrosine kinase) [%] | IC50 (HCT 116 cell line) [nM] | IC90 (HCT 116 cell line) [nM] | Ki (human CHK1) [nM] | inhibition at 1 µM (LCK tyrosine kinase) [%] | SMILES | FAK % Inhibition at 1 μM (FAK) [%] |
| --- | --- | --- | --- | --- | --- | --- | --- | --- | --- | --- |
| 370 | 240 | 75 | 80 to 82 |  |  |  |  |  | c1ccc(-c2ccc3[nH]nc(-c4nc5ccccc5[nH]4)c3c2)cc1 [Example 3, 3-(1H-Benzoimidazol-2-yl)-5-Phenyl-1H-indazole] |  |
| 8.2 | 17.2 |  |  | 70.3 | 3000 | 5000 |  |  | Clc1ccncc1-c1ccc2[nH]nc(/C=C/c3ccccc3)c2c1 [Example 42, 5-(4-Chloro-pyridin-3-yl)-3-(E)-styryl-1H-indazole] | 78 |
| 34000 | 28000 |  |  |  |  |  | 22500 |  | Nc1ccc2[nH]nc(-c3ccc[nH]3)c2c1 [Example 84, 5-Amino-3-(2-Pyrrolyl)-1H-indazole] |  |
| 12 | 17 |  |  | 58.7 | 2100 | 5000 |  |  | Nc1cccc2c(-c3ccc4[nH]nc(/C=C/c5ccccc5)c4c3)cncc12 [Example 45] | 63 |
| 480 | 690 | 56 |  |  |  |  |  |  | COc1cccc(-c2ccc3[nH]nc(-c4nc5ccccc5[nH]4)c3c2)c1 [Example 5, 3-(1H-Benzoimidazol-2-yl)-5-(3-methoxyphenyl)-1H-indazole] |  |
| 680 | 720 |  |  |  |  |  |  |  | OC1CCCN(c2ccc3[nH]nc(/C=C/c4ccccc4)c3c2)C1 (stereo not shown) [Example 28, 1-[3-((E)Styryl)-1H-indazol-5-yl]-piperidin-3-ol] | 61 |
| 19 | 1 |  |  | 26.9 | 200 | 580 |  |  | c1ccc2c(-c3ccc4[nH]nc(-c5nc6c(CCN7CCCC7)cccc6[nH]5)c4c3)cncc2c1 [Example 34, 4-{3-[4-(2-Pyrrolidin-1-yl-ethyl)-1H-benzoimidazol-2-yl]-1H-indazol-5-yl]-isoquinoline] |  |
| 19 | 29 |  |  | 56.2 | 5000 | 5000 |  |  | Fc1cccc2cncc(-c3ccc4[nH]nc(/C=C/c5ccccc5)c4c3)c12 [Example 44] |  |
| 1700 | 11000 |  |  |  |  |  | 6700 |  | C(=C\c1n[nH]c2ccc(-c3ccccc3)cc12)/c1ccccc1 [Example 1, 5-Phenyl-3-Styryl-1H-Indazole] | 32 |
| 1500 | 1600 |  |  |  |  |  |  |  | OC1CCN(c2ccc3[nH]nc(/C=C/c4ccccc4)c3c2)CC1 [Example 27, 1-[3-((E)Styryl)-1H-indazol-5-yl]-piperidin-4-ol] | 44 |
| 237 | 49 |  |  | 54 |  |  | 8550 | 23 | Cc1c(O)cccc1-c1ccc2[nH]nc(-c3nc4c(O)cccc4[nH]3)c2c1 [Example 21, 2-[5-(3-Hydroxy-2-methyl-phenyl)-1H-indazol-3-yl]-1H-benzoimidazol-4-ol] |  |
| 2.8 | 1 |  |  | 44.1 | 390 | 1300 |  |  | Cc1c(-c2ccc3[nH]nc(-c4nc5ccccc5[nH]4)c3c2)cncc1-c1c[nH]cn1 [Example 65, 3-(1H-Benzoimidazol-2-yl)-5-[5-(1H-imidazol-4-yl)-4-methyl-pyridin-3-yl]-1H-indazole] |  |

— US7232912B2, “Indazole compounds, pharmaceutical compositions, and methods for mediating or inhibiting cell proliferation” (Agouron Pharmaceuticals, Inc., priority 2000, dated 2007)
